Consider 24 compounds from US12391679B2, “Benzamide-substituted bicyclic imidazo- and pyrazolo-fused -pyridine, -pyrimide, and -pyridazine compounds for treatment of inflammatory diseases” (ONCO3R Therapeutics BV, priority 2019, dated 2025).

Format in all cases: biochemical
The target of assay [1] is T1, SIK1 (Homo sapiens, UniProt P57059).
T1 construct: purchased Carna Biosciences 02-131
Put plainly: ADP-Glo kinase assay, SIK1. The gist of the method: (§1)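 Luminescent ADP-formation read-out: enzyme–substrate mix + ATP, 120 min RT; ATP depletion 40 min RT; ADP→ATP conversion with luciferase/luciferin 30 min RT. Controls: 1% DMSO (negative), 10 μM staurosporine final (positive).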

The target of assay [2] is T2, SIK2 (Homo sapiens, UniProt Q9H0K1).
T2 construct: purchased ThermoFisher Scientific PV4792
Briefly: ADP-Glo kinase assay, SIK2. In outline: as §1

Assay [3] deals with T3, SIK3 (Homo sapiens, UniProt Q9Y2K2).
T3 construct: purchased SignalChem S12-11G-100
Briefly: ADP-Glo kinase assay, SIK3. The gist of the method:
as §1

Setting [4] is: ADP-Glo, AMARA 45 μM, 5 μM ATP, 120 min, average IC50.

pIC50: −log10 of the molar value. Like-named read-outs stand apart in the source and are kept apart here.

T2 sequence (Q9H0K1 whole entry): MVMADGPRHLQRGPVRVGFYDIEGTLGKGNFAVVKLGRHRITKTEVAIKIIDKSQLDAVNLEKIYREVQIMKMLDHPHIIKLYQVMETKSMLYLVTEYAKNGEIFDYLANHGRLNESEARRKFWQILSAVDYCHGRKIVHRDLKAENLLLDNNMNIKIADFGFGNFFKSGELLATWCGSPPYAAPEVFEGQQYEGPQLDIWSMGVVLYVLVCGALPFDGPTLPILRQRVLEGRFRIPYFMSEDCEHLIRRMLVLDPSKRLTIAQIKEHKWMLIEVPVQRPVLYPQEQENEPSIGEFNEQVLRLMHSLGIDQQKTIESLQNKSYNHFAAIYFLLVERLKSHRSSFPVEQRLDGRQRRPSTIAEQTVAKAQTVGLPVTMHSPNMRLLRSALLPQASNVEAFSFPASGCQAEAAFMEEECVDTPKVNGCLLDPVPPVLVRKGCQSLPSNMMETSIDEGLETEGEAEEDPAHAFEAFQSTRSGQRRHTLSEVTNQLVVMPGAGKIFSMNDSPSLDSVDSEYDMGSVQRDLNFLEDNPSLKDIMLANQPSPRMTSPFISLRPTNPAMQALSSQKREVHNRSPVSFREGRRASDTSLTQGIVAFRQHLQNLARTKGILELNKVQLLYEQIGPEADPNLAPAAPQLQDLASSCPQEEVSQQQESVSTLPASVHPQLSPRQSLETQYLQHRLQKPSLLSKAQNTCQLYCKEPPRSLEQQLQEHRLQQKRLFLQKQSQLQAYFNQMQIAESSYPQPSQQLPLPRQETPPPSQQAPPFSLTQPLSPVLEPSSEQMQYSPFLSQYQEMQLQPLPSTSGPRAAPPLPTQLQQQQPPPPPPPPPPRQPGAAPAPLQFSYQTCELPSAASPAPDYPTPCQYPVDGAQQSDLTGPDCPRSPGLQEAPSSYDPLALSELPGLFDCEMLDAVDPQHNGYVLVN
T3 sequence (Q9Y2K2 59-365 limits assumed): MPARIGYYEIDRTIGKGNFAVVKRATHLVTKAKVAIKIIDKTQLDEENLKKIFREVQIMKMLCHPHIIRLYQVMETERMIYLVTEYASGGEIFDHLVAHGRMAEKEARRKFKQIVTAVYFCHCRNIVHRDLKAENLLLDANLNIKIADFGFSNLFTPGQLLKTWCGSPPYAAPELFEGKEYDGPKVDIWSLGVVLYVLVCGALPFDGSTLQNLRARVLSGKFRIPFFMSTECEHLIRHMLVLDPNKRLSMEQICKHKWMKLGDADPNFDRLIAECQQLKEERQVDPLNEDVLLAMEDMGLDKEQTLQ
T1 sequence (P57059 whole entry): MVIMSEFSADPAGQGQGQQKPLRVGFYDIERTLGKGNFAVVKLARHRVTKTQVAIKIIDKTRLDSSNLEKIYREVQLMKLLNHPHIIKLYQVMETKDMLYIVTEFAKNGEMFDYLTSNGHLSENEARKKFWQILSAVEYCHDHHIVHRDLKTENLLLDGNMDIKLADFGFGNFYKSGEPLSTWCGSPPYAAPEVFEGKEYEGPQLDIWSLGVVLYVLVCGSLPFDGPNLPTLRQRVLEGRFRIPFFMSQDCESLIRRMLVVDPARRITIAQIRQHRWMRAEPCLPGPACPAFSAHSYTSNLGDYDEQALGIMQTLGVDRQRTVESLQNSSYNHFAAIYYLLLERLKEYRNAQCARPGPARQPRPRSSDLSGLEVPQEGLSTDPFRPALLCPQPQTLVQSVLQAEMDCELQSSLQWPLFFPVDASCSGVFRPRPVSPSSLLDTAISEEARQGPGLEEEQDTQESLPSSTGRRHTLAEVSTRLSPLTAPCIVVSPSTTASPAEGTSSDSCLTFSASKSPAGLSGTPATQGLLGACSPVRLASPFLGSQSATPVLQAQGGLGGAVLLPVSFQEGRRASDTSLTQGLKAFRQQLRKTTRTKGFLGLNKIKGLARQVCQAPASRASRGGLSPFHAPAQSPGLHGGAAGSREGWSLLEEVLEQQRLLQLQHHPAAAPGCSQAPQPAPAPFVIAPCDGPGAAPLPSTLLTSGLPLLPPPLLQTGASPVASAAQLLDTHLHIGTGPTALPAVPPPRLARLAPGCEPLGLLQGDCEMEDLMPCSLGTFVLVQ

On to `COc1cc(-c2cnn3cc(C(C)(C)COS(C)(=O)=O)ccc23)cc(OC(F)F)c1C(=O)N[C@@H]1C[C@@H]1F` [Cpd 267, [2-[3-[3-(difluoromethoxy)-4-[[(1R,2S)-2-fluorocyclopropyl]carbamoyl]-5-methoxy-phenyl]pyrazolo[1,5-a]pyridin-6-yl]-2-methyl-propyl]methanesulfonate], for which the pIC50 in assay [1] is less than 6.30; in assay [2], less than 6.30; in assay [3], 8.00 to 11.00.
As to `COc1cc(-c2cnc3cc([C@@](C)(O)C4CC4)ccn23)cc(OC(F)F)c1C(=O)NC1CC1` (single isomer, unassigned) [Cpd 162, N-cyclopropyl-4-[7-(1-cyclopropyl-1-hydroxy-ethyl)imidazo[1,2-a]pyridin-3-yl]-2-(difluoromethoxy)-6-methoxy-benzamide], the negative-log IC50 (pIC50) is less than 6.30 in assay [1], less than 6.30 in assay [2] and 7.00 to 8.00 in assay [3].
Regarding `COc1cc(-c2cnc3cc(C(C)N4CCCCC4)ccn23)cc(OC(F)F)c1C(=O)NC1CC1` (stereo not drawn) [Cpd 146, N-cyclopropyl-2-(difluoromethoxy)-6-methoxy-4-[7-[1-(1-piperidyl)ethyl]imidazo[1,2-a]pyridin-3-yl]benzamide], the values for the pIC50 in assay [1], in assay [2] and in assay [3] were less than 6.30, less than 6.30 and 7.00 to 8.00, respectively.
As to `CC[C@](C)(O)c1ccn2c(-c3cc(OC)c(C(=O)NC4CC4)c(OC(F)F)c3)cnc2c1` (single isomer, unassigned) [Cpd 165, N-cyclopropyl-2-(difluoromethoxy)-4-[7-(1-hydroxy-1-methyl-propyl)imidazo[1,2-a]pyridin-3-yl]-6-methoxy-benzamide], the values for the pIC50 in assay [1] (setting [4]), in assay [2] (setting [4]) and in assay [3] (setting [4]) were less than 6.30, less than 6.30 and 7.00 to 8.00, respectively.
In the case of `CC[C@](C)(O)c1ccn2c(-c3cc(OC)c(C(=O)NC4CC4)c(OC(F)F)c3)cnc2c1` (single isomer, unassigned) [Cpd 164, N-cyclopropyl-2-(difluoromethoxy)-4-[7-(1-hydroxy-1-methyl-propyl)imidazo[1,2-a]pyridin-3-yl]-6-methoxy-benzamide], the figures for the pIC50 in assay [1], in assay [2] and in assay [3] were less than 6.30, less than 6.30 and 7.00 to 8.00, respectively.
Take `COc1cc(-c2cnc3cc(C(C)(C)C#N)ccn23)cc(OC(F)F)c1C(=O)N1CC(F)C1` [Cpd 96, 2-[3-[3-(difluoromethoxy)-4-(3-fluoroazetidine-1-carbonyl)-5-methoxy-phenyl]imidazo[1,2-a]pyridin-7-yl]-2-methyl-propanenitrile]: the pIC50 in assay [1] was less than 6.30; in assay [2], less than 6.30; in assay [3], 8.00 to 11.00.
`COc1cc(-c2cnc3cc(C4CCCN(C(=O)OC(C)(C)C)C4)ccn23)cc(OC(F)F)c1C(=O)NC1CC1` (stereo not drawn) [Cpd 64, tert-butyl 3-[3-[4-(cyclopropylcarbamoyl)-3-(difluoromethoxy)-5-methoxy-phenyl]imidazo[1,2-a]pyridin-7-yl]piperidine-1-carboxylate]: the pIC50 is less than 6.30 in assay [1], 6.30 to 7.00 in assay [2] and 8.00 to 11.00 in assay [3].
On to `COc1cc(-c2cnn3cc(C4(C#N)CC4)ccc23)cc(OC(F)F)c1C(=O)N[C@@H]1C[C@@H]1F` [Cpd 235, 4-[6-(1-cyanocyclopropyl)pyrazolo[1,5-a]pyridin-3-yl]-2-(difluoromethoxy)-N-[(1R,2S)-2-fluorocyclopropyl]-6-methoxy-benzamide], for which the negative-log IC50 (pIC50) in assay [1] was 6.30 to 7.00; in assay [2], 7.00 to 8.00; in assay [3], 8.00 to 11.00.
Consider `COc1cc(-c2cnc3cc(C(C)(C)CN)ccn23)cc(OC(F)F)c1C(=O)NC1CC1` [Cpd 93, 4-[7-(2-amino-1,1-dimethyl-ethyl)imidazo[1,2-a]pyridin-3-yl]-N-cyclopropyl-2-(difluoromethoxy)-6-methoxy-benzamide], for which the negative logarithm of the IC50 (pIC50) in assay [1] is less than 6.30; in assay [2] it was less than 6.30; in assay [3], 7.00 to 8.00.
In the case of `COc1cc(-c2cnc3cc(C(C)(C)C#N)ccn23)cc(OC(F)F)c1C(=O)NCC(F)F` [Cpd 70, 4-[7-(1-cyano-1-methyl-ethyl)imidazo[1,2-a]pyridin-3-yl]-N-(2,2-difluoroethyl)-2-(difluoromethoxy)-6-methoxy-benzamide], the negative logarithm of the IC50 (pIC50) was less than 6.30 in assay [1], less than 6.30 in assay [2] and 8.00 to 11.00 in assay [3].
In the case of `COc1cc(-c2cnc3cc(C(C)(C)CN4CCOCC4)ccn23)cc(OC(F)F)c1C(=O)NC1CC1` [Cpd 160, N-cyclopropyl-2-(difluoromethoxy)-4-[7-(1,1-dimethyl-2-morpholino-ethyl)imidazo[1,2-a]pyridin-3-yl]-6-methoxy-benzamide], the pIC50 is less than 6.30 in assay [1], less than 6.30 in assay [2] and 7.00 to 8.00 in assay [3].
Turning to `COc1cc(-c2cnc3cc(C4CCOCC4)c(F)cn23)cc(OC(F)F)c1C(=O)NC1CC1` [Cpd 166, N-cyclopropyl-2-(difluoromethoxy)-4-(6-fluoro-7-tetrahydropyran-4-yl-imidazo[1,2-a]pyridin-3-yl)-6-methoxy-benzamide], the values for the pIC50 in assay [1], in assay [2] and in assay [3] were less than 6.30, 6.30 to 7.00 and 8.00 to 11.00, respectively.
With `COc1cc(-c2cnc3cc(C4COCCN4C)ccn23)cc(OC(F)F)c1C(=O)NC1CC1` (stereo not drawn) [Cpd 193, N-cyclopropyl-2-(difluoromethoxy)-6-methoxy-4-[7-(4-methylmorpholin-3-yl)imidazo[1,2-a]pyridin-3-yl]benzamide], the figures for the pIC50 in assay [1], in assay [2] and in assay [3] were less than 6.30, less than 6.30 and 7.00 to 8.00, respectively.
`COc1cc(-c2cnc3cc(C(C)(C)C#N)ccn23)cc(OC)c1C(=O)NC1CC1` [Cpd 28, 4-[7-(1-cyano-1-methyl-ethyl)imidazo[1,2-a]pyridin-3-yl]-N-cyclopropyl-2,6-dimethoxy-benzamide]: the negative logarithm of the IC50 (pIC50) was less than 6.30 in assay [1], less than 6.30 in assay [2] and 7.00 to 8.00 in assay [3].
Take `COc1cc(-c2cnc3cc(C(C)(C)C#N)ccn23)cc(OC(F)F)c1C(=O)N1CC(F)(F)C1` [Cpd 69, 2-[3-[4-(3,3-difluoroazetidine-1-carbonyl)-3-(difluoromethoxy)-5-methoxy-phenyl]imidazo[1,2-a]pyridin-7-yl]-2-methyl-propanenitrile]: the results for the pIC50 in assay [1], in assay [2] and in assay [3] were less than 6.30, less than 6.30 and 8.00 to 11.00, respectively.
With `COc1cc(-c2cnc3cc(C(C)(C)N)ccn23)cc(OC(F)F)c1C(=O)NC1CC1` [Cpd 106, 4-[7-(1-amino-1-methyl-ethyl)imidazo[1,2-a]pyridin-3-yl]-N-cyclopropyl-2-(difluoromethoxy)-6-methoxy-benzamide], the results for the negative logarithm of the IC50 (pIC50) in assay [1], in assay [2] and in assay [3] were less than 6.30, less than 6.30 and 8.00 to 11.00, respectively.
For the compound `COC(=O)C1(c2ccn3c(-c4cc(OC)c(C(=O)NC5CC5)c(OC(F)F)c4)cnc3c2)CC1` [Cpd 113, methyl 1-[3-[4-(cyclopropylcarbamoyl)-3-(difluoromethoxy)-5-methoxy-phenyl]imidazo[1,2-a]pyridin-7-yl]cyclopropanecarboxylate], the pIC50 in assay [1] was less than 6.30; in assay [2], less than 6.30; in assay [3], 8.00 to 11.00.
For `CCOC(C)(C)c1ccn2c(-c3cc(OC)c(C(=O)NC4CC4)c(OC(F)F)c3)cnc2c1` [Cpd 128, N-cyclopropyl-2-(difluoromethoxy)-4-[7-(1-ethoxy-1-methyl-ethyl)imidazo[1,2-a]pyridin-3-yl]-6-methoxy-benzamide], the pIC50 in assay [1] is less than 6.30; in assay [2], less than 6.30; in assay [3], 7.00 to 8.00.
On to `COc1cc(-c2cnc3cc(C4CN(C(C)=O)C4)ccn23)cc(OC(F)F)c1C(=O)NC1CC1` [Cpd 63, 4-[7-(1-acetylazetidin-3-yl)imidazo[1,2-a]pyridin-3-yl]-N-cyclopropyl-2-(difluoromethoxy)-6-methoxy-benzamide], for which the pIC50 in assay [1] is 6.30 to 7.00; in assay [2] it was 7.00 to 8.00; in assay [3], 8.00 to 11.00.
Regarding `COc1cc(-c2cnc3cc([C@@](C)(O)C4CC4)ccn23)cc(OC(F)F)c1C(=O)NC1CC1` (single isomer, unassigned) [Cpd 163, N-cyclopropyl-4-[7-(1-cyclopropyl-1-hydroxy-ethyl)imidazo[1,2-a]pyridin-3-yl]-2-(difluoromethoxy)-6-methoxy-benzamide], the results for the pIC50 in assay [1] (setting [4]), in assay [2] (setting [4]) and in assay [3] (setting [4]) were less than 6.30, less than 6.30 and 7.00 to 8.00, respectively.
For `COc1cc(-c2cnc3cc(C4(C#N)CC4)ccn23)cc(OC(F)F)c1C(=O)NC1CC1` [Cpd 33, 4-[7-(1-cyanocyclopropyl)imidazo[1,2-a]pyridin-3-yl]-N-cyclopropyl-2-(difluoromethoxy)-6-methoxy-benzamide], the results for the pIC50 in assay [1], in assay [2] and in assay [3] were 6.30 to 7.00, 7.00 to 8.00 and 8.00 to 11.00, respectively.
In the same order, the values of `COc1cc(-c2cnc3cc(C(C)O)ccn23)cc(OC(F)F)c1C(=O)NC1CC1` (stereo not drawn) [Cpd 140, N-cyclopropyl-2-(difluoromethoxy)-4-[7-(1-hydroxyethyl)imidazo[1,2-a]pyridin-3-yl]-6-methoxy-benzamide] are 6.30 to 7.00, 6.30 to 7.00 and 7.00 to 8.00.
Consider `COc1cc(-c2cnc3cc(C(C)(O)C4CC4)ccn23)cc(OC(F)F)c1C(=O)NC1CC1` (stereo not drawn) [Cpd 138, N-cyclopropyl-4-[7-(1-cyclopropyl-1-hydroxy-ethyl)imidazo[1,2-a]pyridin-3-yl]-2-(difluoromethoxy)-6-methoxy-benzamide], for which the pIC50 in assay [1] is less than 6.30; in assay [2], less than 6.30; in assay [3] it was 7.00 to 8.00.
On to `COc1cc(-c2cnn3cc(C4CCOCC4)cnc23)cc(OC(F)F)c1C(=O)NC1CC1` [Cpd 95, N-cyclopropyl-2-(difluoromethoxy)-6-methoxy-4-(6-tetrahydropyran-4-ylpyrazolo[1,5-a]pyrimidin-3-yl)benzamide], for which the pIC50 was less than 6.30 in assay [1], 6.30 to 7.00 in assay [2] and 8.00 to 11.00 in assay [3].
